From the Deep4Chem optical property database

Assay: solvent given as SMILES

## CNc1ccc2c(c1)-c1ccccc1C2=O
In C1CCCCC1
  emission maximum: 489 nm
In CC#N
  emission maximum: 548 nm
In CCO
  emission maximum: 583 nm
In c1ccccc1
  emission maximum: 509 nm

## Cc1ccc(C2=C3C=CC(C#Cc4ccccc4)=[N+]3[B-](F)(F)n3c(C#Cc4ccccc4)ccc32)cc1
In C1CCCCC1
  emission maximum: 626 nm
In C1CCOC1
  emission maximum: 625 nm
In C1COCCO1
  emission maximum: 626 nm
In CCOC(C)=O
  emission maximum: 621 nm
In CO
  emission maximum: 622 nm
In Cc1ccccc1
  emission maximum: 629 nm
In ClC(Cl)Cl
  emission maximum: 628 nm
In ClCCl
  emission maximum: 628 nm

## Cc1ccccc1N1c2c(sc3ccccc23)Sc2sc3ccccc3c21
In ClCCl
  emission maximum: 583 nm

## CCCCOc1c(OC)cc2cc(OC)c(OCCCC)c3c4c(OCCCC)c(OC)cc5cc(OC)c(OCCCC)c(c1c23)c54
In ClCCl
  emission maximum: 474 nm

## COc1ccc(/C=N/c2cc(C(C)C)c(O)cc2C)cc1
In C1CCCCC1
  emission maximum: 404 nm
In C1CCOC1
  emission maximum: 408 nm
In C1COCCO1
  emission maximum: 407 nm
In CC#N
  emission maximum: 411 nm
In CC(C)(C)O
  emission maximum: 411 nm
In CC(C)O
  emission maximum: 413 nm
In CCCCCC
  emission maximum: 401 nm
In CCCCO
  emission maximum: 414 nm
In CCO
  emission maximum: 414 nm
In CCOC(C)=O
  emission maximum: 407 nm
In CN(C)C=O
  emission maximum: 413 nm
In CO
  emission maximum: 417 nm
In CS(C)=O
  emission maximum: 417 nm
In ClC(Cl)Cl
  emission maximum: 413 nm
In ClCCl
  emission maximum: 413 nm
In O
  emission maximum: 440 nm
In OCCO
  emission maximum: 426 nm

## CCOC(=O)COc1ccc(C(c2c(C)[nH]c3ccccc23)c2c(C)[nH]c3ccccc23)cc1
In C1CCCCC1
  emission maximum: 327 nm
In CC#N
  emission maximum: 340 nm
In CO
  emission maximum: 344 nm
In O
  emission maximum: 350 nm

## COc1c2ccccc2c(OC)c2c(C#C[Si](C(C)C)(C(C)C)C(C)C)c3cc4ccccc4cc3c(C#C[Si](C(C)C)(C(C)C)C(C)C)c12
In ClCCl
  emission maximum: 712 nm

## CC[n+]1nc2cc3c4c(c2c2cc(F)ccc21)CCCN4CCC3
In O
  emission maximum: 564 nm

## F[B-]1(F)n2c(Oc3ccccc3)c(Cl)c3c2C(=C2C(Br)=C(Cl)C(Oc4ccccc4)=[N+]21)Oc1ccccc1-3
In ClCCl
  emission maximum: 492 nm

## COc1ccc2cc(C#N)c3ccc4ccccc4c3c2c1
In ClC(Cl)Cl
  emission maximum: 415 nm

## c1ccc(-c2nc(-c3cc(-n4c5ccccc5c5ccccc54)cc(-n4c5ccccc5c5ccccc54)c3)nc(-c3cc(-n4c5ccccc5c5ccccc54)cc(-n4c5ccccc5c5ccccc54)c3)n2)cc1
In C1CCCCC1
  emission maximum: 438.78 nm
In C1CCOC1
  emission maximum: 595.92 nm
In Cc1ccccc1
  emission maximum: 504.9 nm

## CCCCCN(c1ccccc1)c1ccc2c(c1)C(CC)(CC)c1cc(/C=C/c3ccc(/C=C(\C#N)C(=O)O)s3)ccc1-2
In C1CCOC1
  emission maximum: 597 nm
In C1COCCO1
  emission maximum: 618 nm
In CC#N
  emission maximum: 496 nm
In CC(C)=O
  emission maximum: 574 nm
In CCOC(C)=O
  emission maximum: 580 nm
In CN(C)C=O
  emission maximum: 504 nm
In CS(C)=O
  emission maximum: 517 nm
In ClCCl
  emission maximum: 584 nm

## CC(C)(C)c1ccc(C2=C(Br)C3=C(c4ccccc4)c4c(Br)c(-c5ccc(C(C)(C)C)cc5)c(-c5ccc(C(C)(C)C)cc5)n4[B-](F)(F)[N+]3=C2c2ccc(C(C)(C)C)cc2)cc1
In C1CCCCC1
  emission maximum: 614 nm
In C1CCOC1
  emission maximum: 617 nm
In CC#N
  emission maximum: 613 nm
In Cc1ccccc1
  emission maximum: 618 nm
In ClCCl
  emission maximum: 619 nm

## N#Cc1ccc(C2=Cc3ccccc3P2(=O)c2ccccc2)cc1 (centres undefined)
In ClCCl
  emission maximum: 426 nm

## Clc1ccc(/C=C/c2ccncn2)cc1
In ClCCl
  emission maximum: 411 nm

## O=[N+]([O-])c1ccc2c(ccc3[n+]2[B-](F)(F)n2c-3cc3c4ccccc4c4ccccc4c32)c1
In ClCCl
  emission maximum: 631 nm

## Cc1ccccc1C
In C1CCCCC1
  emission maximum: 291.38 nm

## CCC1=C(C)C2=Cc3c4ccccc4c4n3[B-](c3ccc5ccc6cccc7ccc3c5c67)(Oc3ccccc3-4)[N+]2=C1C (centres undefined)
In CC#N
  emission maximum: 635 nm
In CCCCCC
  emission maximum: 638 nm
In Cc1ccccc1
  emission maximum: 642 nm
In ClCCl
  emission maximum: 640 nm

## CCCCCCN1C(=O)C(c2ccc(-n3c4ccccc4c4ccccc43)cc2)=C(c2ccc(-n3c4ccccc4c4ccccc43)cc2)C1=O
In ClC(Cl)Cl
  emission maximum: 626 nm
In c1ccc2c(c1)c1ccccc1n2-c1ccc(-c2ccc(-n3c4ccccc4c4ccccc43)cc2)cc1
  emission maximum: 591 nm

## O=C1c2ccccc2-c2cnccc21
In CC#N
  emission maximum: 516.76 nm
In CCCCCC
  emission maximum: 464.17 nm

## N#C/C(=C\c1ccc(-c2ccncc2)cc1)c1ccc(-c2ccncc2)cc1
In ClCCl
  emission maximum: 460 nm

## c1ccc2c(c1)c1ccccc1n2-c1cc(-c2nc3ccccn3n2)cc(-n2c3ccccc3c3ccccc32)c1
In Cc1ccccc1
  emission maximum: 373 nm

## CN(C)c1ccc(-c2nc(-c3ccccc3)c3ccccn23)cc1
In C1CCCCC1
  emission maximum: 482 nm
In CC#N
  emission maximum: 509 nm
In CO
  emission maximum: 500 nm
In ClCCl
  emission maximum: 495 nm
In O
  emission maximum: 512 nm
